{
  "source": "BindingDB's records for PubMed 34838650",
  "about": "(University of Messina, 2022)",
  "key": {"[1]": {"assay": "Inhibition of chymotrypsin-like activity of human 20s immuno proteasome beta5i subunit assessed as substrate hydrolysis using Suc-Leu-Leu-Val-Tyr-AMC as flurogenic substrate at 0.004 mg/ml measured for 10 mins by fluorescence assay"}, "[2]": {"molecular_target": "Proteasome subunit beta type-9 (PSMB9)", "assay": "Inhibition of 20S immuno proteosome beta1i subunit (unknown origin) assessed as substrate hydrolysis using Z-Leu-Leu-Glu-AMC as fluorogenic substrate at 100 uM"}, "[3]": {"molecular_target": "Proteasome subunit beta type-10 (PSMB10)", "assay": "Inhibition of 20S immuno proteosome beta2i subunit (unknown origin) assessed as substrate hydrolysis using Boc-Leu-Arg-Arg-AMC as fluorogenic substrate at 100 uM"}, "[4]": {"assay": "Inhibition of 20S constitutive proteosome beta1c subunit (unknown origin) assessed as substrate hydrolysis using Z-Leu-Leu-Glu-AMC as fluorogenic substrate at 100 uM"}, "[5]": {"assay": "Inhibition of 20S constitutive proteosome beta2c subunit (unknown origin) assessed as substrate hydrolysis using Boc-Leu-Arg-Arg-AMC as fluorogenic substrate at 100 uM"}, "[6]": {"molecular_target": "Proteasome subunit beta type-9 (PSMB9)", "assay": "Inhibition of human spleen 20S immuno proteosome beta1i subunit assessed as substrate hydrolysis using Ac-Pro-Ala-Leu-AMC as fluorogenic substrate by fluorescence based assay"}},
  "data": [
    {"smiles": "CC(C)CCNC(=O)Cn1ccc2ccc(Br)cc2c1=O", "values": [
      {"measurement": "Ki", "setting": "[1]", "value": 4.39, "unit": "µM"}
    ]},
    {"smiles": "COc1cc2ccn(C/C=C/C(=O)Nc3ccccc3)c(=O)c2cc1OC", "values": [
      {"measurement": "Ki", "setting": "[2]", "value": 10, "unit": "µM"},
      {"measurement": "Ki", "setting": "[3]", "value": 12, "unit": "µM"},
      {"measurement": "Ki", "setting": "[4]", "value": 17, "unit": "µM"},
      {"measurement": "Ki", "setting": "[5]", "value": 15, "unit": "µM"}
    ]},
    {"smiles": "COc1cc2ccn(C/C=C/C(=O)NCc3ccccc3)c(=O)c2cc1OC", "values": [
      {"measurement": "Ki", "setting": "[2]", "value": 3, "unit": "µM"},
      {"measurement": "Ki", "setting": "[4]", "value": 23, "unit": "µM"},
      {"measurement": "Ki", "setting": "[5]", "value": 9, "unit": "µM"}
    ]},
    {"smiles": "COc1cc2ccn(C/C=C/C(=O)NCCc3ccccc3)c(=O)c2cc1OC", "values": [
      {"measurement": "Ki", "setting": "[2]", "value": 14, "unit": "µM"},
      {"measurement": "Ki", "setting": "[3]", "value": 4, "unit": "µM"},
      {"measurement": "Ki", "setting": "[5]", "value": 10, "unit": "µM"}
    ]},
    {"smiles": "COc1cc2ccn(C/C=C/C(=O)NCCCc3ccccc3)c(=O)c2cc1OC", "values": [
      {"measurement": "Ki", "setting": "[2]", "value": 50, "unit": "µM"},
      {"measurement": "Ki", "setting": "[3]", "value": 3, "unit": "µM"},
      {"measurement": "Ki", "setting": "[5]", "value": 5, "unit": "µM"}
    ]},
    {"smiles": "CCCCNC(=O)/C=C/Cn1ccc2cc(OC)c(OC)cc2c1=O", "values": [
      {"measurement": "Ki", "setting": "[3]", "value": 42, "unit": "µM"},
      {"measurement": "Ki", "setting": "[5]", "value": 10, "unit": "µM"}
    ]},
    {"smiles": "COc1cc2ccn(C/C=C/C(=O)NCCC(C)C)c(=O)c2cc1OC", "values": [
      {"measurement": "Ki", "setting": "[2]", "value": 0.27, "unit": "µM"},
      {"measurement": "Ki", "setting": "[3]", "value": 20, "unit": "µM"},
      {"measurement": "Ki", "setting": "[5]", "value": 4, "unit": "µM"}
    ]},
    {"smiles": "COc1cc2ccn(C/C=C/C(=O)NC3CCCCC3)c(=O)c2cc1OC", "values": [
      {"measurement": "Ki", "setting": "[3]", "value": 42, "unit": "µM"}
    ]},
    {"smiles": "O=C(CCn1ccccc1=O)NCc1ccccc1", "values": [
      {"measurement": "Ki", "setting": "[6]", "value": 0.021, "unit": "µM"}
    ]}
  ]
}
